Test results reported in patent US12286437B2, “Cardiac sarcomere inhibitors” (Cytokinetics, Inc., priority 2021, dated 2025).

How the values were obtained:
CYP2C8 = biological target: T1, CYP2C8 (Homo sapiens, UniProt P10632); experiment: Time-dependent inhibition of CYP2C8 in human liver microsomes; type: in vitro ADME; details: for (% Activity NADPH T0)/(% Activity NADPH T30): fold change; for activity at 30 min, 25 µM / activity at 0 min, 25 µM / activity at 30 min, 50 µM / activity at 0 min, 50 µM: pooled human liver microsomes, human liver microsomes; for activity at 30 min, 25 µM / activity at 30 min, 50 µM: after 30 minutes incubation, read-out: % Activity NADPH T30; for activity at 0 min, 25 µM / activity at 0 min, 50 µM: time zero, read-out: % Activity NADPH T0
T1 construct: Pooled human microsomes and selective CYP probe substrates were used; from tissue; host or cells: pooled human liver microsomes
T1 sequence (P10632 1-490): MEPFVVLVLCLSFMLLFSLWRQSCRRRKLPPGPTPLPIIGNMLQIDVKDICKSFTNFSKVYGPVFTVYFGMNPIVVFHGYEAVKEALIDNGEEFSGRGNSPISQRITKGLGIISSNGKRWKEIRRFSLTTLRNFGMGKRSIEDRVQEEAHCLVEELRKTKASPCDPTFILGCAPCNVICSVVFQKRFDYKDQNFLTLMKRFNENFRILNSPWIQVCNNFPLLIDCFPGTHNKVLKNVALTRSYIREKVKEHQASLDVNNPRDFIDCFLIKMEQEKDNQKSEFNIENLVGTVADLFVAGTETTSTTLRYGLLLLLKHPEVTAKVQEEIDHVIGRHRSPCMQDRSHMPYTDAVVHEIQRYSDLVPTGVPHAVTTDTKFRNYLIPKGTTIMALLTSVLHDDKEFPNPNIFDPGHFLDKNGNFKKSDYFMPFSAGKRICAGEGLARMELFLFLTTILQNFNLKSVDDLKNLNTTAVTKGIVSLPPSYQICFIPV
Method: (§1) An assessment of the time-dependent Inhibitory Potential of the test compounds against Principal Human Cytochrome P450 Isozymes using Human Liver Microsomes was also carried out using standard methods (Grimm et al, Drug Metab. Dispos., July; 37(7):1355-70. doi: 10.1124/dmd.109.026716, 2009). Pooled human microsomes and selective CYP probe substrates were used for in vitro assessment of test compounds at 25 and 50 μM as time-dependent inhibitors of […] human hepatic cytochrome P450 isozymes (CYP1A2, 2B6, 2C9, 2C19, 2D6, and 3A4). LC-MS/MS was used to quantify metabolite formation. The inhibition of each P450 enzyme in human liver microsomes was measured as the percentage decrease in the activity of marker metabolite formation as measured by LC-MS/MS compared to non-inhibited controls (=100% activity) at time zero and after 30 minutes incubation. The occurrence of any time dependent inhibition was then expressed as the fold change in enzyme activity at time zero relative to the activity after 30 minutes incubation.

[1] = Rat single dose pharmacokinetics; type: in vivo, Sprague Dawley rats; details: male, Sprague Dawley, plasma, IV; for Vd: read-out: Vss
Method: Male Sprague Dawley rats were obtained from Zhejiang Vital River Laboratory Animal Technology Co., Ltd. The animals in IV group had free access to water and food. The animals in PO group were fasted overnight before dosing and provided with food 2 hours post dosing. The IV dose solution was prepared in 10% DMA/50% PG/40% HPβCD solution (40% w/v aqueous HPβCD) at a concentration of 1 mg/mL. The oral dosing suspension was prepared by suspending Test Article in 0.5% HPMC/0.1% Tween 80 in water at a concentration 0.2 mg/mL. Concentrations of IV and PO doses were measured at the end of the study. Pharmacokinetic parameters were calculated using the nominal dose values if the measured values were within 20% of the nominal values. Three rats were dosed IV via a bolus injection via caudal vein. Three rats per dose group were dosed by oral gavage. Blood samples were collected from the jugular vein cannula at predose, 5 (IV only), 15, 30 minutes, and 1, 2, 4, 6, and 24 hours post-dose. Blood volumes were replaced with an equal amount of sterile 0.9% saline. Blood samples were centrifuged and the collected plasma was stored at −80° C. for subsequent analysis. Plasma samples were analyzed for Test Article concentrations using a LC/MS/MS method. Briefly, a 50 μL aliquot of each plasma sample was mixed with 100 μL of acetonitrile that contained an internal standard. The mixture was vortexed and centrifuged. Ten (10) […] of the resulting solution was injected onto a reverse-phase C18 column and the resultant peaks detected on a LC/MS/MS equipped with a turbo ionspray ionization source. Sample concentrations below the limit of quantification (BLQ) were treated as zero for pharmacokinetic calculations. Pharmacokinetic parameters were estimated from individual animals using noncompartmental analysis of the concentration-time data (Phoenix WinNonLin software, version 64; Pharsight, Mountain View, CA). The elimination rate constant (k) was calculated as the absolute value of the slope of the linear regression of logarithm (log) of the concentration versus time for the last three data points of the concentration-time profiles. Apparent elimination half-life (t1/2) values were calculated as ln(2)/k. Area under the concentration-time curve (AUC) values were estimated using linear trapezoidal method. AUCt values were calculated from the dosing time to the last measurable concentration. AUC∞ values were calculated as the sum of the corresponding AUCt and the ratio of the last detectable concentration divided by k (AUCt-∞). Plasma clearance (CL) was calculated from Dose/AUC∞. Mean resident time (MRT) was estimated by moment analysis. Volume of distribution at steady state (Vss) was calculated from MRT∞×CL. Maximum concentration (Cmax) and time to reach Cmax (tmax) were recorded as observed. Bioavailability was calculated from the ratio of dose normalized AUC∞,po of individual rats/mean dAUC∞,iv×100% where dAUC was the dose normalized AUC value. Compounds tested were prepared in accordance with the synthetic procedures described herein.

CYP2D6 = biological target: T2, CYP2D6 (Homo sapiens, UniProt P10635); experiment: Time-dependent inhibition of CYP2D6 in human liver microsomes; type: in vitro ADME; details: for (% Activity NADPH T0)/(% Activity NADPH T30): fold change; for activity at 30 min, 25 µM / activity at 0 min, 25 µM / activity at 30 min, 50 µM / activity at 0 min, 50 µM: pooled human liver microsomes, human liver microsomes; for activity at 30 min, 25 µM / activity at 30 min, 50 µM: after 30 minutes incubation, read-out: % Activity NADPH T30; for activity at 0 min, 25 µM / activity at 0 min, 50 µM: time zero, read-out: % Activity NADPH T0
T2 construct: Pooled human microsomes and selective CYP probe substrates were used; from tissue; host or cells: pooled human liver microsomes
Method: as §1

CYP2B6 = biological target: T3, CYP2B6 (Homo sapiens, UniProt P20813); experiment: Time-dependent inhibition of CYP2B6 in human liver microsomes; type: in vitro ADME; details: for (% Activity NADPH T0)/(% Activity NADPH T30): fold change; for activity at 30 min, 25 µM / activity at 0 min, 25 µM / activity at 30 min, 50 µM / activity at 0 min, 50 µM: pooled human liver microsomes, human liver microsomes; for activity at 30 min, 25 µM / activity at 30 min, 50 µM: after 30 minutes incubation, read-out: % Activity NADPH T30; for activity at 0 min, 25 µM / activity at 0 min, 50 µM: time zero, read-out: % Activity NADPH T0
T3 construct: Pooled human microsomes and selective CYP probe substrates were used; from tissue; host or cells: pooled human liver microsomes
T3 sequence (P20813 1-491): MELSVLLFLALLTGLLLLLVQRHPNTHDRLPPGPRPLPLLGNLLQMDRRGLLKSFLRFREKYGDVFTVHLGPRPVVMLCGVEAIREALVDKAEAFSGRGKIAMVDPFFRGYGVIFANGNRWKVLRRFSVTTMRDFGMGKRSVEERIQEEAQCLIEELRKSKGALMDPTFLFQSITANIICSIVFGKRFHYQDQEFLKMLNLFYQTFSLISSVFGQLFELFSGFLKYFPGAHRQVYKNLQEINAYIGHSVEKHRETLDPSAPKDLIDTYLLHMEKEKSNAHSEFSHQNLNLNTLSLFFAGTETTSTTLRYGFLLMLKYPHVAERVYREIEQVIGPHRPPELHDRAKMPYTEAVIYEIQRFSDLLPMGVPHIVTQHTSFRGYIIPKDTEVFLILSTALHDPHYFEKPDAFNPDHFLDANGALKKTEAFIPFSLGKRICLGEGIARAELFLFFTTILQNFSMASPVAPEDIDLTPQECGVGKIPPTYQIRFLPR
Method: as §1

T2 sequence (P10635 whole entry): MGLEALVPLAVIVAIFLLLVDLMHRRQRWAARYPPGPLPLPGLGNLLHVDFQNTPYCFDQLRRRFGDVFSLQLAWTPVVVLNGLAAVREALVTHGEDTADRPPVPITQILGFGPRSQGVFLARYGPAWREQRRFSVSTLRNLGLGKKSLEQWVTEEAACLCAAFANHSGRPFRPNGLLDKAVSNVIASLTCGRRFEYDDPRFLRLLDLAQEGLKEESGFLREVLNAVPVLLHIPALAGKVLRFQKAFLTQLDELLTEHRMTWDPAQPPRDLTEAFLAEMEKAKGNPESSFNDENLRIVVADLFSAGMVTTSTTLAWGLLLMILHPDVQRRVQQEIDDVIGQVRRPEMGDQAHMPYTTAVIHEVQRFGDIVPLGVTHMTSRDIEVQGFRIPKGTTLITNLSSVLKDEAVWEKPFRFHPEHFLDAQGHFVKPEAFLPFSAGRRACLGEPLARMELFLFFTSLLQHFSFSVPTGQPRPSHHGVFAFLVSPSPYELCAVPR

In the case of `C[C@H]1CC[C@H](N2CC(=O)N(Cc3ccc(Cl)cc3)C3(CN(C(N)=O)C3)C2=O)CC1` [Compound 18, 5-(4-chlorobenzyl)-8-((1r,4r)-4-methylcyclohexyl)-6,9-dioxo-2,5,8-triazaspiro[3.5]nonane-2-carboxamide], the “(% Activity NADPH T0)/(% Activity NADPH T30)” value (CYP2C8; CYP2C8, 25 μM) is reported as 0.7, the “(% Activity NADPH T0)/(% Activity NADPH T30)” value (CYP2C8; CYP2C8, 50 μM) is reported as 1.3 and the activity at 30 min, 25 µM (CYP2C8; CYP2C8, 25 μM) is reported as 100%. The activity at 0 min, 25 µM (CYP2C8; CYP2C8, 25 μM) was 65%, the activity at 30 min, 50 µM (CYP2C8; CYP2C8, 50 μM) was 76% and the activity at 0 min, 50 µM (CYP2C8; CYP2C8, 50 μM) was 100%. It also gave a clearance [1] of 63.6 mL/min/kg, a half-life [1] of 2.15 h and a Vd [1] of 9.48 L/kg. For the same compound, the “(% Activity NADPH T0)/(% Activity NADPH T30)” value (CYP2D6; CYP2D6, 25 μM) was 1.0, the “(% Activity NADPH T0)/(% Activity NADPH T30)” value (CYP2D6; CYP2D6, 50 μM) was 1.1 and the activity at 30 min, 25 µM (CYP2D6; CYP2D6, 25 μM) was 105%. For the same compound, the activity at 0 min, 25 µM (CYP2D6; CYP2D6, 25 μM) was 103%, the activity at 30 min, 50 µM (CYP2D6; CYP2D6, 50 μM) was 91% and the activity at 0 min, 50 µM (CYP2D6; CYP2D6, 50 μM) was 104%. The “(% Activity NADPH T0)/(% Activity NADPH T30)” value (CYP2B6; CYP2B6, 25 μM) was 0.8, the “(% Activity NADPH T0)/(% Activity NADPH T30)” value (CYP2B6; CYP2B6, 50 μM) was 0.9 and the activity at 30 min, 25 µM (CYP2B6; CYP2B6, 25 μM) was 103%. The activity at 0 min, 25 µM (CYP2B6; CYP2B6, 25 μM) was 80%, the activity at 30 min, 50 µM (CYP2B6; CYP2B6, 50 μM) was 83% and the activity at 0 min, 50 µM (CYP2B6; CYP2B6, 50 μM) was 76%.

For `CC(C)N1CC(=O)N(Cc2ccc(C(F)(F)F)cc2)C2(CN(c3cccnn3)C2)C1=O` [Compound 13, 8-isopropyl-2-(pyridazin-3-yl)-5-(4-(trifluoromethyl)benzyl)-2,5,8-triazaspiro[3.5]nonane-6,9-dione], the “(% Activity NADPH T0)/(% Activity NADPH T30)” value (CYP2C8; CYP2C8, 25 μM) was 1.2, the “(% Activity NADPH T0)/(% Activity NADPH T30)” value (CYP2C8; CYP2C8, 50 μM) was 1.0 and the activity at 30 min, 25 µM (CYP2C8; CYP2C8, 25 μM) was 98%. It also gave an activity at 0 min, 25 µM (CYP2C8; CYP2C8, 25 μM) of 116%, an activity at 30 min, 50 µM (CYP2C8; CYP2C8, 50 μM) of 106% and an activity at 0 min, 50 µM (CYP2C8; CYP2C8, 50 μM) of 106%. For the same compound, the clearance [1] was 38.9 mL/min/kg, the half-life [1] was 0.95 h and the Vd [1] was 2.17 L/kg. The “(% Activity NADPH T0)/(% Activity NADPH T30)” value (CYP2D6; CYP2D6, 25 μM) was 1.0, the “(% Activity NADPH T0)/(% Activity NADPH T30)” value (CYP2D6; CYP2D6, 50 μM) was 1.4 and the activity at 30 min, 25 µM (CYP2D6; CYP2D6, 25 μM) was 100%. For the same compound, the activity at 0 min, 25 µM (CYP2D6; CYP2D6, 25 μM) was 96%, the activity at 30 min, 50 µM (CYP2D6; CYP2D6, 50 μM) was 72% and the activity at 0 min, 50 µM (CYP2D6; CYP2D6, 50 μM) was 98%. For the same compound, the “(% Activity NADPH T0)/(% Activity NADPH T30)” value (CYP2B6; CYP2B6, 25 μM) was 0.9, the “(% Activity NADPH T0)/(% Activity NADPH T30)” value (CYP2B6; CYP2B6, 50 μM) was 1.1 and the activity at 30 min, 25 µM (CYP2B6; CYP2B6, 25 μM) was 116%. For the same compound, the activity at 0 min, 25 µM (CYP2B6; CYP2B6, 25 μM) was 102%, the activity at 30 min, 50 µM (CYP2B6; CYP2B6, 50 μM) was 81% and the activity at 0 min, 50 µM (CYP2B6; CYP2B6, 50 μM) was 90%.
